Results reported in paper PMC7939474 (The Journal of Biological Chemistry, 2021).

Molecular target: T1, VcINDY WT (Vibrio cholerae, UniProt Q9KNE0)
T1 construct: gene VC_A0025
Test: biochemical

**Q.** For O=C(O)CCC(=O)O [succinate], which Kd is on record?
**A.** The Kd was 4.3 ± 1.5 mM.
